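Compound exposure: 48 hours, 5 concentrations, 96-well plates. TGI marks complete inhibition of growth.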
Columns and labels:
Assay in all cases: inhibition of tumour cell growth, NCI panel, 48 h
786-0 renal = system: 786-0 renal
A498 renal = system: A498 renal
A549 NSCLC = system: A549 NSCLC
ACHN renal = system: ACHN renal
CAKI-1 renal = system: CAKI-1 renal
CCRF-CEM leukemia = system: CCRF-CEM leukemia
COLO 205 colon = system: COLO 205 colon
DLD-1 colon = system: DLD-1 colon
DMS 114 small cell lung = system: DMS 114 small cell lung
DMS 273 small cell lung = system: DMS 273 small cell lung
EKVX NSCLC = system: EKVX NSCLC
HCC-2998 colon = system: HCC-2998 colon
HCT-15 colon = system: HCT-15 colon
HL-60(TB) leukemia = system: HL-60(TB) leukemia
HOP-18 NSCLC = system: HOP-18 NSCLC
HOP-62 NSCLC = system: HOP-62 NSCLC
HOP-92 NSCLC = system: HOP-92 NSCLC
IGROV1 ovarian = system: IGROV1 ovarian
K-562 leukemia = system: K-562 leukemia
KM12 colon = system: KM12 colon
KM20L2 colon = system: KM20L2 colon
LOX IMVI melanoma = system: LOX IMVI melanoma
M19-MEL melanoma = system: M19-MEL melanoma
MALME-3M melanoma = system: MALME-3M melanoma
MOLT-4 leukemia = system: MOLT-4 leukemia
NCI-H23 lung = system: NCI-H23 lung
NCI-H460 lung = system: NCI-H460 lung
NCI-H522 lung = system: NCI-H522 lung
OVCAR-3 ovarian = system: OVCAR-3 ovarian
OVCAR-5 ovarian = system: OVCAR-5 ovarian
OVCAR-8 ovarian = system: OVCAR-8 ovarian
RPMI-8226 leukemia = system: RPMI-8226 leukemia
RXF 393 renal = system: RXF 393 renal
RXF-631 renal = system: RXF-631 renal
SF-268 CNS = system: SF-268 CNS
SF-295 CNS = system: SF-295 CNS
SF-539 CNS = system: SF-539 CNS
SK-MEL-2 melanoma = system: SK-MEL-2 melanoma
SK-MEL-28 melanoma = system: SK-MEL-28 melanoma
SK-MEL-5 melanoma = system: SK-MEL-5 melanoma
SK-OV-3 ovarian = system: SK-OV-3 ovarian
SN12C renal = system: SN12C renal
SNB-19 CNS = system: SNB-19 CNS
SNB-75 CNS = system: SNB-75 CNS
SNB-78 CNS = system: SNB-78 CNS
SW-620 colon = system: SW-620 colon
TK-10 renal = system: TK-10 renal
U251 CNS = system: U251 CNS
UACC-62 melanoma = system: UACC-62 melanoma
UO-31 renal = system: UO-31 renal
HCT-116 colon = system: HCT-116 colon
HT29 colon = system: HT29 colon
LXFL 529 NSCLC = system: LXFL 529 NSCLC
M14 melanoma = system: M14 melanoma
NCI-H226 lung = system: NCI-H226 lung
OVCAR-4 ovarian = system: OVCAR-4 ovarian
SR leukemia = system: SR leukemia
UACC-257 melanoma = system: UACC-257 melanoma

SMILES: COc1ccc(/C=C/C(=O)c2sc(Nc3ccc([N+](=O)[O-])cc3)nc2C)cc1
- TGI (786-0 renal): > 100 µM
- TGI (A498 renal): > 100 µM
- TGI (A549 NSCLC): > 100 µM
- TGI (ACHN renal): > 100 µM
- TGI (CAKI-1 renal): > 100 µM
- TGI (CCRF-CEM leukemia): 82 µM
- TGI (COLO 205 colon): > 100 µM
- TGI (DLD-1 colon): > 100 µM
- TGI (DMS 114 small cell lung): > 100 µM
- TGI (DMS 273 small cell lung): > 100 µM
- TGI (EKVX NSCLC): > 100 µM
- TGI (HCC-2998 colon): 83.5 µM
- TGI (HCT-15 colon): > 100 µM
- TGI (HL-60(TB) leukemia): 67.6 µM
- TGI (HOP-18 NSCLC): > 100 µM
- TGI (HOP-62 NSCLC): > 100 µM
- TGI (HOP-92 NSCLC): 81.5 µM
- TGI (IGROV1 ovarian): > 100 µM
- TGI (K-562 leukemia): 93.6 µM
- TGI (KM12 colon): > 100 µM
- TGI (KM20L2 colon): > 100 µM
- TGI (LOX IMVI melanoma): > 100 µM
- TGI (M19-MEL melanoma): > 100 µM
- TGI (MALME-3M melanoma): > 100 µM
- TGI (MOLT-4 leukemia): 50.7 µM
- TGI (NCI-H23 lung): 85 µM
- TGI (NCI-H460 lung): > 100 µM
- TGI (NCI-H522 lung): 51.1 µM
- TGI (OVCAR-3 ovarian): 89.4 µM
- TGI (OVCAR-5 ovarian): > 100 µM
- TGI (OVCAR-8 ovarian): > 100 µM
- TGI (RPMI-8226 leukemia): 47.9 µM
- TGI (RXF 393 renal): 87.9 µM
- TGI (RXF-631 renal): > 100 µM
- TGI (SF-268 CNS): > 100 µM
- TGI (SF-295 CNS): 81.5 µM
- TGI (SF-539 CNS): > 100 µM
- TGI (SK-MEL-2 melanoma): 48.6 µM
- TGI (SK-MEL-28 melanoma): > 100 µM
- TGI (SK-MEL-5 melanoma): 46.8 µM
- TGI (SK-OV-3 ovarian): > 100 µM
- TGI (SN12C renal): > 100 µM
- TGI (SNB-19 CNS): > 100 µM
- TGI (SNB-75 CNS): > 100 µM
- TGI (SNB-78 CNS): > 100 µM
- TGI (SW-620 colon): > 100 µM
- TGI (TK-10 renal): > 100 µM
- TGI (U251 CNS): > 100 µM
- TGI (UACC-62 melanoma): > 100 µM
- TGI (UO-31 renal): 91.9 µM

SMILES: Nc1nc2c3c(ncn3CC(O)CO2)n1 (configuration not stated)
- TGI (786-0 renal): > 100 µM
- TGI (A498 renal): > 100 µM
- TGI (A549 NSCLC): > 100 µM
- TGI (ACHN renal): > 100 µM
- TGI (CAKI-1 renal): > 100 µM
- TGI (CCRF-CEM leukemia): > 100 µM
- TGI (COLO 205 colon): > 100 µM
- TGI (DLD-1 colon): > 100 µM
- TGI (DMS 114 small cell lung): > 100 µM
- TGI (DMS 273 small cell lung): > 100 µM
- TGI (HCC-2998 colon): > 100 µM
- TGI (HCT-116 colon): > 100 µM
- TGI (HCT-15 colon): > 100 µM
- TGI (HL-60(TB) leukemia): > 100 µM
- TGI (HOP-18 NSCLC): > 100 µM
- TGI (HOP-62 NSCLC): > 100 µM
- TGI (HOP-92 NSCLC): > 100 µM
- TGI (HT29 colon): 28.6 µM
- TGI (IGROV1 ovarian): > 100 µM
- TGI (K-562 leukemia): > 100 µM
- TGI (KM12 colon): > 100 µM
- TGI (KM20L2 colon): > 100 µM
- TGI (LOX IMVI melanoma): > 100 µM
- TGI (LXFL 529 NSCLC): > 100 µM
- TGI (M14 melanoma): > 100 µM
- TGI (M19-MEL melanoma): 19.4 µM
- TGI (MALME-3M melanoma): > 100 µM
- TGI (MOLT-4 leukemia): > 100 µM
- TGI (NCI-H226 lung): > 100 µM
- TGI (NCI-H23 lung): > 100 µM
- TGI (NCI-H460 lung): > 100 µM
- TGI (NCI-H522 lung): > 100 µM
- TGI (OVCAR-3 ovarian): > 100 µM
- TGI (OVCAR-4 ovarian): > 100 µM
- TGI (OVCAR-5 ovarian): > 100 µM
- TGI (OVCAR-8 ovarian): > 100 µM
- TGI (RPMI-8226 leukemia): > 100 µM
- TGI (RXF 393 renal): > 100 µM
- TGI (RXF-631 renal): > 100 µM
- TGI (SF-268 CNS): > 100 µM
- TGI (SF-295 CNS): > 100 µM
- TGI (SF-539 CNS): > 100 µM
- TGI (SK-MEL-2 melanoma): > 100 µM
- TGI (SK-MEL-28 melanoma): > 100 µM
- TGI (SK-MEL-5 melanoma): > 100 µM
- TGI (SK-OV-3 ovarian): > 100 µM
- TGI (SN12C renal): > 100 µM
- TGI (SNB-19 CNS): > 100 µM
- TGI (SNB-75 CNS): 29 µM
- TGI (SNB-78 CNS): > 100 µM
- TGI (SR leukemia): > 100 µM
- TGI (SW-620 colon): > 100 µM
- TGI (TK-10 renal): > 100 µM
- TGI (U251 CNS): > 100 µM
- TGI (UACC-257 melanoma): > 100 µM
- TGI (UACC-62 melanoma): > 100 µM
- TGI (UO-31 renal): > 100 µM

Source: PubChem BioAssay (NCI)
